{"source": "patent US20240108573A1", "about": "“NANOLIPID CARRIER BASED FORMULATION FOR BRAIN DELIVERY THROUGH INTRANASAL ROUTE AND ITS PREPARATION PROCESS” (AMRITA SCHOOL OF PHARMACY, AMRITA VISHWA VIDYAPEETHAM, priority 2022, published 2024)", "origin": "cited, not measured here"}
{"smiles": "O=C1NC(=O)C(c2ccccc2)(c2ccccc2)N1", "note": "[phenytoin sodium]", "values": [{"measurement": "biological half-life", "value": "15-22 hrs"}]}
